PMC5219908, “Expression, purification and kinetic characterization of recombinant benzoate dioxygenase from Rhodococcus ruber UKMP-5M” (Molecular Biology Research Communications, 2016)

System: T1, benzoate dioxygenase
T1 construct: gene benA; benA amplicon 642 bp (about 213 residues, much shorter than a usual BenA of about 450), His-tag from pET28b, E. coli BL21(DE3), ion exchange; primers encode start MELDRGPAG and end RDVPVYPF; no reductase or beta subunit added
Test: NADH oxidation at […] nm, Lineweaver-Burk
Type: biochemical, Rhodococcus ruber
Details: 25 °C, 3 min; reduced nicotinamide cofactor (NADH; reagent list prints the phosphate form), FeSO4; substrate range printed as 0.1-1.2 mM, far above the Km; pH of kinetic assay not stated

O=C(O)c1ccccc1 [sodium benzoate]
Km: 5.58 µM
